Earlier results as cited in US8097636B2, “Heterocyclic derivatives as modulators of ion channels” (Vertex Pharmaceuticals Incorporated, priority 2007, dated 2012).

Target: NaV1.3 (Homo sapiens, UniProt Q9NY46)
Settings: read-out: TTX IC50

Chain of NaV1.3 (Q9NY46 whole entry, looked up): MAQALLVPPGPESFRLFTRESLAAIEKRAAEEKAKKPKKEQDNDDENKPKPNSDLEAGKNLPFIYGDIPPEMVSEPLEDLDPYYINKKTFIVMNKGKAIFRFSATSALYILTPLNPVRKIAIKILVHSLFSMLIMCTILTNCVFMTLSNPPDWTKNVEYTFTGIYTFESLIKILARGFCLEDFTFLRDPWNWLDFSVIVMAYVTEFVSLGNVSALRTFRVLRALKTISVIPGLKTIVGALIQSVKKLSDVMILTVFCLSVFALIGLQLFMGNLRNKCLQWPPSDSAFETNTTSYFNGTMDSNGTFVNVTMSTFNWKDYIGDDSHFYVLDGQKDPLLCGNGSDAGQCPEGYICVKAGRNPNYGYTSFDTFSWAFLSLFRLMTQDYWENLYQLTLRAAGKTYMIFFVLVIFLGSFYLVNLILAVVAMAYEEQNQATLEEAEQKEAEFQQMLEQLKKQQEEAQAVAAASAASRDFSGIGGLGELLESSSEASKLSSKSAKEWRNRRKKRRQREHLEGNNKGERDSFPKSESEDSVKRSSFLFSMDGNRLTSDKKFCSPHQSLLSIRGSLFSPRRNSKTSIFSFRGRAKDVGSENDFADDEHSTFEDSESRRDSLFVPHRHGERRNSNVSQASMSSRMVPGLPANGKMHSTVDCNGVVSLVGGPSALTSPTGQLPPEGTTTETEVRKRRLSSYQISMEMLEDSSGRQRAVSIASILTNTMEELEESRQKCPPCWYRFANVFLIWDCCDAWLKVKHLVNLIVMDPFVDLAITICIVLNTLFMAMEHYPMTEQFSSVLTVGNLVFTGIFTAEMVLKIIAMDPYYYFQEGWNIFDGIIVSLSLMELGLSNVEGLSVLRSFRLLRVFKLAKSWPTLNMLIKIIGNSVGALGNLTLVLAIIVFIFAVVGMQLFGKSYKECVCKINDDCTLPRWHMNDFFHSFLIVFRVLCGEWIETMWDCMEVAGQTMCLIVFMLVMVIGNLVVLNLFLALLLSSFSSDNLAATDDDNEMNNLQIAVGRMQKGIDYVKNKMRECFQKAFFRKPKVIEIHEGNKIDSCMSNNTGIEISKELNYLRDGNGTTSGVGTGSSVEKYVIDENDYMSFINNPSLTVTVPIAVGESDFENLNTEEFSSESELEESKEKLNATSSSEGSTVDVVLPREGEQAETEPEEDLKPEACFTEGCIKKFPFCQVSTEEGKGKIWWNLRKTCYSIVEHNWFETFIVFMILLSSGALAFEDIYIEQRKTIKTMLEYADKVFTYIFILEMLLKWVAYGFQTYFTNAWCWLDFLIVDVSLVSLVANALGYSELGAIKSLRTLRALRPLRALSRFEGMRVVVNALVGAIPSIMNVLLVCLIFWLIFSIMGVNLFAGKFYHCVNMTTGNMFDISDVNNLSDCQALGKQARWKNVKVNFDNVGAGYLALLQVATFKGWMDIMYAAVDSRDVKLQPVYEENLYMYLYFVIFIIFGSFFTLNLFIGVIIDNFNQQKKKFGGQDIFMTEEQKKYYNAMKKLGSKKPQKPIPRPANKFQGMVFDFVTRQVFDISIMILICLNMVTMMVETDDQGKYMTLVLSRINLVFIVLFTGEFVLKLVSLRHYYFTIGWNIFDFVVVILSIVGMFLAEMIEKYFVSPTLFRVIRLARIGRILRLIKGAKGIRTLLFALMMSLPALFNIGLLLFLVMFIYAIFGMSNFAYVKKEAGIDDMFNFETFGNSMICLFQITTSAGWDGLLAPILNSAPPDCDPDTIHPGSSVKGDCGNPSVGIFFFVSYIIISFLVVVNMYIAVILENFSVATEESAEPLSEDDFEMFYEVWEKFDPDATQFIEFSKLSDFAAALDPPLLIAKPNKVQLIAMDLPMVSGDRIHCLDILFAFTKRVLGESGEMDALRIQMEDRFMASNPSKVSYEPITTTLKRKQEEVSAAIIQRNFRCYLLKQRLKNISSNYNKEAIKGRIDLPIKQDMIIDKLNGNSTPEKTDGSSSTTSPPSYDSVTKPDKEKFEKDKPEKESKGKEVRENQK

NC1=N[C@H](O)[C@H]2[C@H]3O[C@]4(O)O[C@@H]([C@@H](O)[C@@]2(N1)[C@@H]4O)[C@]3(O)CO [TTX, tetrodotoxin]
IC50: 0.015 µM
